The values that follow come from patent US20120214822A1 (ASTRAZENECA AB, priority 2007, published 2012).

Test system in the first data set: not listed separately
Kind of data set: GVS (Dynamic Vapour Sorption) water uptake of crystalline forms. Format: physicochemical. As to conditions: at 80% RH; ±0.2%. The protocol:
GVS profiles were measured using a Dynamic Vapour Sorption DVS-1 instrument. The solid sample ca. 1-5 mg was placed into a glass vessel and the weight of the sample was recorded during a dual cycle step method (40 to 90 to 0 to 90 to 0% relative humidity (RH), in steps of 10% RH).
For `CNCCOc1ccccc1C(C)(C)Nc1nccn(-c2cc(C(=O)NC3CC3)ccc2C)c1=O.Cc1ccc(S(=O)(=O)O)cc1` [N-Cyclopropyl-4-methyl-3-[3-[[1-methyl-1-[2-[2-(methylamino)ethoxy]phenyl]ethyl]amino]-2-oxo-1(2H)-pyrazinyl]-benzamide Tosylate Salt Crystalline Form A], the GVS weight increase turned out to be 0.1 % w/w.
`CNCCOc1ccccc1C(C)(C)Nc1nccn(-c2cc(C(=O)NC3CC3)ccc2C)c1=O` [example 163 crystalline form A, N-Cyclopropyl-4-methyl-3-[3-[[1-methyl-1-[2-[2-(methylamino)ethoxy]phenyl]ethyl]amino]-2-oxo-1(2H)-pyrazinyl]-benzamide Crystalline Form A] gave a GVS weight increase of 5 % w/w.
Same read-out and setting: for `CNCCOc1ccccc1C(C)(C)Nc1nccn(-c2cc(C(=O)NC3CC3)ccc2C)c1=O` [example 163 crystalline form B, N-Cyclopropyl-4-methyl-3-[3-[[1-methyl-1-[2-[2-(methylamino)ethoxy]phenyl]ethyl]amino]-2-oxo-1(2H)-pyrazinyl]-benzamide Crystalline Form B] the value was 4.3 % w/w.
As for `CNCCOc1ccccc1C(C)(C)Nc1nccn(-c2cc(C(=O)NC3CC3)ccc2C)c1=O` [example 163 crystalline form C, N-Cyclopropyl-4-methyl-3-[3-[[1-methyl-1-[2-[2-(methylamino)ethoxy]phenyl]ethyl]amino]-2-oxo-1(2H)-pyrazinyl]-benzamide Crystalline Form C], the GVS weight increase is recorded as 0.3 % w/w.

Staying with this data set, now noted: between RH of 0%-80%; ±0.2%.
Turning to `CNCCOc1ccccc1C1(Nc2nccn(-c3cc(C(=O)NC4CC4)ccc3C)c2=O)CC1` [example 167 Crystalline Form A, N-Cyclopropyl-4-methyl-3-[3-[[1-[2-[2-(methylamino)ethoxy]phenyl]cyclopropyl]amino]-2-oxo-1(2H)-pyrazinyl]-benzamide Crystalline Form A], the “water uptake as measured by GVS” value stood at 1%.
On to `CNCCOc1ccccc1C1(Nc2nccn(-c3cc(C(=O)NC4CC4)cc(F)c3C)c2=O)CC1` [example 259 crystalline form A, N-Cyclopropyl-3-fluoro-4-methyl-5-[3-[[1-[2-[2-(methylamino)ethoxy]phenyl]cyclopropyl]amino]-2-oxo-1(2H)-pyrazinyl]-benzamide Crystalline Form A], for which the “water uptake as measured by GVS” value was 0.4%.
Still for that read-out and setting: the figure for `Cc1c(F)cc(C(=O)NC2CC2)cc1-n1ccnc(NC2(c3ccccc3OCCNCCO)CC2)c1=O` [example 260 crystalline form A, N-Cyclopropyl-3-fluoro-5-[3-[[1-[2-[2-[(2-hydroxyethyl)amino]ethoxy]phenyl]cyclopropyl]amino]-2-oxo-1(2H)-pyrazinyl]-4-methyl-benzamide Crystalline Form A] is 1.2%.

The target in another data set is human active recombinant p38α-6His tagged (Homo sapiens, UniProt Q16539). Briefly: P38 Alpha Enzyme Assay (AlphaScreen, biotinylated-ATF2 substrate).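 Further: 0.5 nM final p38α, reaction started with ATP and run 45 min at 37 °C, phospho-ATF2 read by antibody-based AlphaScreen, background wells quenched with EDTA before ATP.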 It is filed as biochemical. Conditions: p38 alpha enzyme inhibition; means of replicate determinations; 4 h pre-incubation at 37° C.; SD of assay 0.2-0.3 log units. (In general: Bead proximity is the source of the signal in Alpha formats.)
human active recombinant p38α-6His tagged, sequence (Q16539 whole entry): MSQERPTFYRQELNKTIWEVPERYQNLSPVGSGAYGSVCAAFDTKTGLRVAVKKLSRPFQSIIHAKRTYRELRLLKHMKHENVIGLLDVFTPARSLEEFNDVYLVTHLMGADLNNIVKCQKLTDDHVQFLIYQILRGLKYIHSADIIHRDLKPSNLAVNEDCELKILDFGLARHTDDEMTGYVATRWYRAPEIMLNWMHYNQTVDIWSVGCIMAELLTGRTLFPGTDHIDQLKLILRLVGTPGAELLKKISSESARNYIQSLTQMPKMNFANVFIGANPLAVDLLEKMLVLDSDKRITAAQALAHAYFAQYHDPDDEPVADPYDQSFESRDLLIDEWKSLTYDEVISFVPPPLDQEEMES
On to `CCNCCOc1ccccc1C(C)(C)Nc1nccn(-c2cc(C(=O)NC3CC3)ccc2Cl)c1=O` [Example 333, 4-Chloro-N-cyclopropyl-3-[3-[(1-{2-[2-(ethylamino)ethoxy]phenyl}-1-methylethyl)amino]-2-oxopyrazin-1(2H)-yl]benzamide], for which the pIC50 (as a rule, the IC50 on a negative log10 scale, so that one unit is a factor of ten) is 9.5.
Consider `CC(C)(Nc1nccn(-c2cc(C(=O)NC3CC3)ccc2Cl)c1=O)c1ccccc1OCCN` [Example 334, 3-[3-({1-[2-(2-Aminoethoxy)phenyl]-1-methylethyl}amino)-2-oxopyrazin-1(2H)-yl]-4-chloro-N-cyclopropylbenzamide], for which the negative logarithm of the IC50 (pIC50) amounted to 9.3.
